Results published in patent US9951042B2, “Polymorphic form of [5-fluoro-3-({2-[(4-fluorobenzene) sulfonyl] pyridin-3-yl}methyl)-2-methylindol-1-yl]-acetic acid” (Atopix Therapeutics Limited, priority 2014, dated 2018).
≈ marks a conversion by molar mass, not a printed value. Entries after “also recorded” stand apart in the source; their conditions may differ.

Columns and labels:
[1] = Dynamic vapour sorption (DVS); format: physicochemical
Procedure: DVS (SPS): Sorption Measurement System SPS11-100n. The sample was placed in an Al crucible, and the sample was allowed to equilibrate at a given r.h. before starting a predefined humidity program. The used measurement program can be recognized in the corresponding figures (blue line).
In order to examine the behaviour of Batch 1 in the presence of variable water vapour pressure, the sample was analyzed by DVS. […] The sample was conditioned at 50% r.h. before starting a pre-defined humidity program with a scanning rate of 5% r.h. change per hour. Below 50% r.h. a continuous mass loss is observed. […] At relative humidities above 84% r.h. an increased water uptake is observed. At 95% r.h. no equilibrium is reached. This is typical for amorphous material. At the end of the measurement (end humidity 50% r.h.) the sample has a 0.6% higher mass as the starting material. The sample was checked by FT-Raman (pre- and post DVS measurements).

TG-FTIR thermogravimetry = format: physicochemical; conditions: 25° C. to 250° C., heating rate 10° C./min
Procedure: TG-FTIR: Thermogravimetric measurements were carried out with a Netzsch Thermo-Microbalance TG 209 coupled to a Bruker FTIR Spectrometer Vector 22 or IFS 28 (sample pans with a pinhole, N2 atmosphere, heating rate 10° C./min, range 25° C. up to 250° C.).
Batch 3 was analyzed by TG-FTIR in a temperature range of 25° C. to 250° C. and a heating rate of 10° C./min. […] Decomposition occurs above ˜160° C. Therefore the material is likely a non-solvated form.

CRTH2 receptor = target: T1, CRTH2 receptor (Homo sapiens, UniProt Q9Y5Y4); conditions: cited from earlier work
T1 sequence (Q9Y5Y4 1-395): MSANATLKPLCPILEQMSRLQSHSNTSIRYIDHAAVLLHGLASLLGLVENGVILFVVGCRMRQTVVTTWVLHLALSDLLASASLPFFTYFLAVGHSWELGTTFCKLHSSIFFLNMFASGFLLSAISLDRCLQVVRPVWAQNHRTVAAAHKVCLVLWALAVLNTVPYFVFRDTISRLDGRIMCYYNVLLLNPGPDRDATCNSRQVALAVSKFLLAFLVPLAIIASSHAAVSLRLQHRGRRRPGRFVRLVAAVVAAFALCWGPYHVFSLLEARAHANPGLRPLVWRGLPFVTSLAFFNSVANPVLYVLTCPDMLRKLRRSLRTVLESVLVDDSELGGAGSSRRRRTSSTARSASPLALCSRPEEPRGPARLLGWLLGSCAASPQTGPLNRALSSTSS

[2] = Thermodynamic stability of polymorphic forms (suspension equilibration); format: physicochemical
Procedure: Polymorphic Form 3 has a melting signal at 200° C. as measured by differential scanning calorimetry and is stable at temperatures above about 60-65° C.
A mixture with similar ratios of the products of Example 4, Experiment 15 (Form 1), Example 4, Experiment 9 (form 2+x) and Example 4, Experiment 6 (Form 2+Form 3) were suspended in acetonitrile and shaken for 13 days at 22° C. to give a product designated Product P24). The solid was recovered by filter centrifugation and characterized by PXRD. […] These signals could be assigned to (i) another crystalline form or (ii) the signals could not be detected for Product P24 because the diffractogram has a lower intensity.
Thus, after 13 days at 22° C. the PXRD corresponds to that of Form 2.

[3] = Solubility of polymorphic forms in simulated intestinal fluids by HPLC; format: physicochemical; conditions: for Solubility / pH of Saturated solution: 25° C., equilibrated 24 hours
Procedure: The solubility of Form 1, Form 2 and Form 3 was determined by HPLC in fasted state simulated intestinal fluid (FaSSIF) and fed state simulated intestinal fluid (FeSSIF) at 25° C. FaSSIF and FeSSIF were prepared from SIF powder, available at PHARES, Switzerland. Suspensions of […] were prepared and equilibrated for 24 hours at 25° C. The suspensions were filtered. The pH values of the resulting saturated solutions were measured. The filtrates were diluted and analyzed by HPLC using a general, unoptimized method. The values listed below are averages over multiple repetitions. Additionally Raman spectra of the recovered solids were recorded.

Row | SMILES | Temperature range of thermodynamic stability [2] | Solubility ([3]; FaSSIF) | pH of Saturated solution ([3]; FaSSIF) | Solubility ([3]; FeSSIF) | pH of Saturated solution ([3]; FeSSIF) | also measured
1 | Cc1c(Cc2cccnc2S(=O)(=O)c2ccc(F)cc2)c2cc(F)ccc2n1CC(=O)O [Batch 1, [5-fluoro-3-({2-[(4-fluorobenzene)sulfonyl]pyridin-3-yl}methyl)-2-methylindol-1-yl]-acetic acid] | – | – | – | – | – | Mass change at end of DVS measurement versus starting material ([1]; end humidity 50% r.h., 5% r.h. change per hour): 0.6%; Phase transition after DVS (FT-Raman pre- and post) ([1]; sample recovered from DVS): no phase transition
2 | Cc1c(Cc2cccnc2S(=O)(=O)c2ccc(F)cc2)c2cc(F)ccc2n1CC(=O)O [Batch 3, [5-fluoro-3-({2-[(4-fluorobenzene)sulfonyl]pyridin-3-yl}methyl)-2-methylindol-1-yl]-acetic acid] | – | – | – | – | – | Decomposition temperature (TG-FTIR thermogravimetry): > 160 °C
3 | Cc1c(Cc2cccnc2S(=O)(=O)c2ccc(F)cc2)c2cc(F)ccc2n1CC(=O)O [Compound 1, [5-fluoro-3-({2-[(4-fluorobenzene)sulfonyl]pyridin-3-yl}methyl)-2-methylindol-1-yl]-acetic acid] | – | – | – | – | – | CRTH2 antagonist activity (CRTH2 receptor): has CRTH2 antagonist activity
4 | Cc1c(Cc2cccnc2S(=O)(=O)c2ccc(F)cc2)c2cc(F)ccc2n1CC(=O)O [Form 1, [5-fluoro-3-({2-[(4-fluorobenzene)sulfonyl]pyridin-3-yl}methyl)-2-methylindol-1-yl]-acetic acid] | thermodynamically stable at high temperatures | 720 µg/mL (≈ 1580 µM) | 5.7 | 1180 µg/mL (≈ 2590 µM) | 4.9 | –

Continued, in another order:

Row | Temperature range of thermodynamic stability [2] | Solubility ([3]; FaSSIF) | pH of Saturated solution ([3]; FaSSIF) | Solubility ([3]; FeSSIF) | pH of Saturated solution ([3]; FeSSIF) | SMILES | also measured
5 | 60-65 °C | 550 µg/mL (≈ 1200 µM) | 6.1 | 350 µg/mL (≈ 767 µM) | 5.0 | Cc1c(Cc2cccnc2S(=O)(=O)c2ccc(F)cc2)c2cc(F)ccc2n1CC(=O)O [Form 2, [5-fluoro-3-({2-[(4-fluorobenzene)sulfonyl]pyridin-3-yl}methyl)-2-methylindol-1-yl]-acetic acid] | Most stable form after suspension equilibration of a mixture of forms ([2]; acetonitrile, 13 days at 22° C., PXRD): most stable form at room temperature
6 | 60-65 °C | 1310 µg/mL (≈ 2870 µM) | 5.4 | 2120 µg/mL (≈ 4640 µM) | 5.0 | Cc1c(Cc2cccnc2S(=O)(=O)c2ccc(F)cc2)c2cc(F)ccc2n1CC(=O)O [Form 3, [5-fluoro-3-({2-[(4-fluorobenzene)sulfonyl]pyridin-3-yl}methyl)-2-methylindol-1-yl]-acetic acid] | Comparative solubility among crystalline forms ([3]; FaSSIF and FeSSIF): most soluble crystalline form; also recorded: more soluble in both FaSSIF and FeSSIF
